# Assay results reported in ChEMBL document CHEMBL3988442, “University of Dundee, Small-Polar-MMV Screening Library” (2021).
# pIC50: −log10 of the molar value.
# Biological target: Tryptophan--tRNA ligase (Mycobacterium tuberculosis (strain ATCC 25618 / H37Rv), UniProt P9WFT3)
# Test: Biochemical assay for Mt-TrpRS
# Assay type: functional
# Tryptophan--tRNA ligase, sequence (P9WFT3 whole entry): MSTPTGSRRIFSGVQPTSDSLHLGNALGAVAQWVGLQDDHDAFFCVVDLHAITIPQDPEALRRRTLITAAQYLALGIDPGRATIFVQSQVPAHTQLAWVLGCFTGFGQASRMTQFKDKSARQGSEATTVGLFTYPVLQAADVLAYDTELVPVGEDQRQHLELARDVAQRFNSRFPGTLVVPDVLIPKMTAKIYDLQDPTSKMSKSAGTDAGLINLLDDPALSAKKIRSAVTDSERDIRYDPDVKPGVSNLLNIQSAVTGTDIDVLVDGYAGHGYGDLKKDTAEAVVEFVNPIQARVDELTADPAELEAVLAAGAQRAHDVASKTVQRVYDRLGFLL
row,SMILES,pIC50
1,O=C(NCCc1ccncc1)c1cccnc1OCC(F)(F)F,< 3.71
2,CCn1cnnc1C1CCN(C(=O)c2cc(C)c(C)s2)CC1,< 3.71
3,c1ccc(OCC2C[C@@H]3[C@@H](C2)OCCN3Cc2ccoc2)nc1 (some centres not stated),< 3.71
4,Cc1ccc(S(=O)(=O)NCc2[nH]ncc2Br)cc1F,< 3.71
5,COc1cccc(-c2ccnc(C3CCNCC3)c2)c1,< 3.71
6,CCO[C@H]1CN(CC2CCOCC2)[C@@H]2CCCO[C@H]12,< 3.71
7,CC(C)c1nc(CN2CCCC(Cn3cncn3)C2)cs1 (configuration not stated),< 3.71
8,CN1CCC(Cc2cncc(-c3ccccc3C(=O)O)n2)C1 (configuration not stated),< 3.71
9,O=c1[nH]c(-c2ccncc2)ncc1-c1ccnc(NC2CC2)n1,< 3.71
10,Cc1ccc(F)cc1-c1ccc(N)nc1,< 3.71
11,Cc1cc(C(F)(F)F)nn1CCCNC(=O)C1CCCO1 (configuration not stated),< 3.71
12,O=C(c1cnco1)N1C[C@@H](O)[C@H](Oc2cccc(F)c2)C1,< 3.71
13,O=C1NC(=O)c2c3c(nc(O)c21)CCCC3,< 3.71
14,CC(C)c1nc(CN2CCC(c3ccnn3CCO)CC2)no1,< 3.71
15,Cc1nc(O)cc(C2CCN(Cc3ccc(F)c(F)c3)C2)n1 (configuration not stated),< 3.71
16,CN(C)CC(=O)N1C[C@@H]2CC[C@H](Oc3ccccc3)[C@@H]2C1,< 3.71
17,CC(=O)c1cc2ncc(C(=O)NC3CC3)cc2[nH]1,< 3.71
18,COc1ccccc1CC(=O)N1CC[C@H](O)[C@]2(CCCO2)C1,< 3.71
19,CS(=O)(=O)N1CCC2(CC1)CC(NCc1ccco1)c1ccccc12 (configuration not stated),< 3.71
20,CS(=O)(=O)c1nccn1CCOc1ccccc1F,< 3.71
21,COCC(O)CN1CCC(=O)N(Cc2ccco2)Cc2ccccc21 (configuration not stated),< 3.71
22,CCSc1ncc(Cl)c(C(=O)NC(CCSC)C(=O)O)n1 (configuration not stated),< 3.71
23,CN(C)CCNC(=O)c1nc2c(s1)CCCN2C(=O)C1CC1,< 3.71

row,SMILES,pIC50
1,CS(=O)(=O)N1C[C@@H]2CCN(C(=O)c3cscn3)[C@@H]2C1,< 3.71
2,CN1CCO[C@@H]2CN(C(=O)NCc3ccccc3)CC[C@@H]2C1,< 3.71
3,NC(=O)CN1CCCC(Cc2ccc(N)nn2)C1 (configuration not stated),< 3.71
4,CC1CCN(CC(O)CNc2ccccn2)CC1 (configuration not stated),< 3.71
5,Cc1nc(Nc2ncccn2)cc(C2CCCN2C)n1 (configuration not stated),< 3.71
6,O=C(c1cccnc1Oc1ccc(Cl)cc1)N1CC[C@@H](O)C1,< 3.71
7,CNc1cc(C2CCCN2Cc2ccc(OCC(=O)O)cc2)ccn1 (configuration not stated),< 3.71
8,CN1CCCC(CCCc2cccnc2)(C(N)=O)C1 (configuration not stated),< 3.71
9,COCCN1CCN(Cc2cnc(C(C)C)nc2)CC1,< 3.71
10,COc1ccccc1C1(C(=O)NCCN2CCCCC2)CCOCC1,< 3.71
11,CCOc1ccc(N(C)Cc2nnc(C)o2)cc1,< 3.71
12,CCOCCN1CCC(C(=O)c2cc(F)ccc2F)CC1,< 3.71
13,O=C(NCCc1ccccc1)C1CCN(C(=O)Cn2cncn2)C1 (configuration not stated),< 3.71
14,CN(Cc1ccc(F)cc1)CC1(O)CCN(C(=O)c2ccncc2)C1 (configuration not stated),< 3.71
15,COc1cccc(F)c1CN1CCC(c2nc(C)cc(C)n2)C1 (configuration not stated),< 3.71
16,Cn1cnnc1C1CCN(C(=O)CCOc2ccc(Cl)cc2)CC1,< 3.71
17,O=C(NCc1ccccn1)c1cncc(C2CCCN2)n1 (configuration not stated),< 3.71
18,Cc1nc(C2CCCN2C(=O)CC2CCCC2)ncc1C(N)=O (configuration not stated),< 3.71
19,COc1cccc(CNCc2cccnc2)c1,< 3.71
20,CCN(CC)C1COc2ccc(Br)cc2C1=O (configuration not stated),< 3.71
21,COc1cccc(CNc2cnn(CC(F)F)c2)c1,< 3.71
22,COc1ccccc1CN1CC(O)CN(S(=O)(=O)C(C)C)CC1=O (configuration not stated),< 3.71
23,CCn1cc(CN2CCC(c3[nH]ncc3S(C)(=O)=O)C2)cn1 (configuration not stated),< 3.71

row,SMILES,pIC50
1,COCC1CC2(CCN(C(=O)c3cncc(C)c3)CC2)CO1 (configuration not stated),< 3.71
2,C=Cn1ncc(CN2CCC(c3ncc(Cl)cc3S(C)(=O)=O)CC2)c1C,< 3.71
3,CCOCc1cnc2n1CCN(C(=O)c1ccccc1)C2C (configuration not stated),< 3.71
4,CCCC(=O)N1CCCC(c2ccccn2)C1 (configuration not stated),< 3.71
5,Cn1cc(-c2cc(C(F)(F)F)n(CCCN)n2)cn1,< 3.71
6,CN(C)c1ncccc1CNC(=O)N1CCCC1CN1CCCC1 (configuration not stated),< 3.71
7,c1cc(-c2cnc(C3CCNCC3)cn2)n[nH]1,< 3.71
8,Nc1nccc(C2CCN(CC3CC3)C2)n1 (configuration not stated),< 3.71
9,CN(C)[C@@H]1CN(C(=O)Cc2ccc(F)cc2)[C@@H]2CCCO[C@H]12,< 3.71
10,O=C(O)C1(Cc2cc(-c3ccccc3F)no2)CCOCC1,< 3.71
11,O=C(N[C@@H]1CC[C@@H](n2ccnc2)[C@@H]1O)c1cc2c(s1)CCC2,< 3.71
12,COCC(=O)N1CCCC(c2cccc(-n3ccnc3)n2)C1 (configuration not stated),< 3.71
13,CC(=O)N1CCN(c2cc(CCN)nc(C3CC3)n2)CC1,< 3.71
14,OCCN1CCN(Cc2cnc3c(-c4ccccc4)cnn3c2)CC1,< 3.71
15,CCC(=O)N1CCc2onc(CNS(C)(=O)=O)c2C1,< 3.71
16,CNc1nc2c(s1)C(=O)CN(C(=O)NCCc1ccccc1)C2,< 3.71
17,CCN(c1ccc(C(=O)N2CCCC2c2cnn(C)c2)cn1)C(C)C (configuration not stated),< 3.71
18,CCN(CC)Cc1ccc(C(=O)N2CCN(CC(C)O)CC2)o1 (configuration not stated),< 3.71
19,CNC(=O)c1cnc2c(C)csc2c1,< 3.71
20,Cc1cnccc1-c1cnn(CCNC(=O)c2ccncc2)c1C1CC1,< 3.71
21,NC(=O)C1(CCCc2ccccn2)CCCN(CCO)C1 (configuration not stated),< 3.71
22,Cc1cc2cc(C(=O)N3C[C@H](O)[C@]4(CCCO4)C3)ccc2o1,< 3.71
23,CC(=O)N1N=C(c2ccccc2)OC1C(=O)NCCc1cccc(F)c1 (configuration not stated),< 3.71

row,SMILES,pIC50
1,CN(C)CCO[C@H]1CN(CC2CC2)[C@@H]2CCCO[C@H]12,< 3.71
2,OC(CNc1ccc(Cl)cn1)CN1CCOCC1 (configuration not stated),< 3.71
3,O=C(NCC1CC2(CO1)CN(Cc1cccs1)C2)C1CCC1 (configuration not stated),< 3.71
4,c1cncc(CN2CCN3C[C@H](Oc4cncnc4)C[C@H]3C2)c1,< 3.71
5,Cc1cn(Cc2ccc(F)c(F)c2)nc1N,< 3.71
6,CCCS(=O)(=O)N1C[C@@H](c2ccccc2)[C@@]2(CCNC2=O)C1,< 3.71
7,CCOC(=O)CNC(=O)C1OC(c2ccccc2)=NN1C(C)=O (configuration not stated),< 3.71
8,O=C(Cc1cccs1)N1CCC(O)(CN2CCc3ccccc3C2)C1 (configuration not stated),< 3.71
9,CN1CCC(Cc2cc(Nc3ccccn3)ncn2)CC1,< 3.71
10,Cc1csc(CCNC(=O)NC(C)Cn2cccn2)n1 (configuration not stated),< 3.71
11,CCn1cc(N)c(-c2nnc3n2CCCC3)n1,< 3.71
12,CCc1ccc(C(=O)N2CCC(c3nncn3CC)CC2)s1,< 3.71
13,COCCn1cnnc1C1CCCN(C(C)C)C1 (configuration not stated),< 3.71
14,Cc1ccnc(N2CCC(C(N)=O)CC2)n1,< 3.71
15,COc1cccc(C(=O)NC(c2ccccn2)[C@H]2CC[C@H](CN)CC2)c1 (some centres not stated),< 3.71
16,Cn1cnnc1C1CCN(C(=O)c2cc3c(s2)CCCC3)CC1,< 3.71
17,NC(=O)C1CCN(C(C(=O)O)c2ccc(Cl)c(C(F)(F)F)c2)CC1 (configuration not stated),< 3.71
18,Cc1cccc(C2CCCN2S(=O)(=O)N(C)C)n1 (configuration not stated),< 3.71
19,COCCN1CCc2ncnc(NC3CC3)c2CC1,< 3.71
20,Cc1ccc(S(=O)(=O)N2C[C@H]3C[C@H](NC(=O)c4cc[nH]n4)[C@H]3C2)cc1,< 3.71
21,CCC(O)CN1CCN(C(=O)c2cc3ccccc3n2CC)CC1 (configuration not stated),< 3.71
22,CC(O)CN1CCC(=O)N(Cc2ccccc2)Cc2ccccc21 (configuration not stated),< 3.71
23,NC(=O)N1CCc2ncc(CNC(=O)CC3CC3)n2CC1,< 3.71
